Measured values published in patent US9943687B2, “Method of treating parkinson's disease and other movement disorders” (Duke University, priority 2007, dated 2018).
“And” between values parts separate entries of the source, which are not always exact repeats. Identical values can stand only once.

How the values were obtained:
corticostriatal circuit = assay: Corticostriatal LFP oscillations / dopamine spectral index after AMPT injection; assay type: in vivo, C57/J (wild type) male mice; conditions: after AMPT injection 250 mg/kg i.p.
Protocol: Two C57/J (wild type) male mice where implanted with peripheral nerve cuff electrodes, microwire electrodes arrays in the striatum and motor cortex and one EMG wire in the trapezium muscle. After a week of recovery, a series of experiments were carried out. Individual animals were introduced to the open field activity (OFA) monitor cage, which permitted tracking of the animal's locomotive activity. After 10 minutes, the animal was injected with AMPT (250 mg/kg, i.p.) to produce a partial depletion in dopamine brain levels. The stimulation started 15 minutes after the injection. It was delivered in 2-minute windows, alternated with 2 minutes of rest (no stimulation). The amplitude was fixed at 0.4 mA. This value was selected on the basis that it produced a noticeable effect on the animal (soft scratching of the whiskers pads) at the onset of stimulation but no further signs of discomfort or pain. Sixteen different frequency values delivered in a pseudorandom way (1-130 Hz) were tested.
The key observation in these experiments was that IS at some frequencies could revert this strong neural oscillation pattern to the type of desynchronized firing activity observed during the control period. […] In order to quantify this observation, the ratio between the LFP power in the 2-4 Hz and 0-4 Hz range was used as an indicator of the predominant oscillatory pattern (FIG. 6). […]

wild-type mice [1] = assay: Open-field locomotion after acute pharmacological dopamine depletion; assay type: in vivo, wild-type C57/BL6J mice
Protocol: (§1) Rats were placed in a circular open-field (90 cm diameter) for 70 min (10 min adaptation and 1 h behavioural recording). The animals were then allowed to rest in its home cage for one hour. After that, the animals were reintroduced into the open-field and dorsal column stimulation (DCS) was applied every 10 minutes for 30 seconds. In mice, locomotion was documented both by video recordings and through an automated tracking system based in infra-red beams (Med Associates Inc., VT). Recordings were obtained before and after dopamine-depletion, and DCS was applied as described below.
(§2) The movements of the rats in the open-field were extracted from the digitized video recordings, with approximately 1 mm spatial resolution, with custom designed algorithms implemented in command interpreting software (The MathWorks Inc., MA). For mice, scored locomotion from the infra-red tracking system was binned into 500 ms bins (original resolution 50 ms). For locomotion extraction from video data, single frames with a 500 ms interval were used.
The number of bins used for histograms of locomotion speeds was adjusted according to the maximum speed scored in a single bin in the slowest condition (i.e. 500 mm/s for the rats and 180 mm/s for the mice). The relatively few (<0.3%) events with locomotion components faster than the upper limit found in the other conditions were assigned to the fastest bin. The number of events within each speed interval was summed and the relative change in response to DCS was calculated. A lower threshold just above the quantal step was used in the analysis of histogram distributions, i.e. 10 mm/500 ms for both mouse and rat data.
(§3) The first set of experiments was carried out using an inducible mouse model of PD, first in wild-type animals and then in dopamine-transporter knock-out (DAT-KO) mice (Sotnikova et al, PLoS Biol. 3:e271 (2005)). Through pharmacological inhibition of dopamine synthesis, acute dopamine depletion was induced in both types of animals in order to reliably document the effects of DCS during a severe parkinsonian-like state of akinesia. In agreement with previous experiments, the characteristic behavioral and electrophysiological changes following inhibition of dopamine synthesis was confirmed in these animals (Carlsson, Acta Neurol. Scand. Suppl 51:11 (1972), Costa et al, Neuron. 52:359 (2006), Sotnikova et al, PLoS Biol. 3:e271 (2005)). In patients, the cardinal symptoms of idiopathic PD, rigidity, resting tremor and brady-/hypokinesia, have been reported to be clinically apparent following degeneration of 60-70% of the dopaminergic neurons of the substantia nigra pars compacta, which in turn results in a […] reduction of striatal dopamine levels (Brooks et al, Biol. Psychiatry 59:908 (2006), Lloyd et al, J. Pharmacol. Exp. Ther. 195:453 (1975)). […] Secondly, a pronounced muscle tremor was evident during resting periods, which was reflected in characteristic oscillatory patterns in electromyographic (EMG) recordings obtained from chronically implanted microwires in the nuchal muscles (FIG. 12). This tremor was suppressed during locomotion bouts. […] (FIG. 13A, see also Drouot et al, Neuron 44:769 (2004) and Sakai et al, Brain Res. 633:144 (1994)).

[2] = system: striatal levels of dopamine; assay: Tissue content analysis of striatal dopamine and metabolites (HPLC-EC) after AMPT; assay type: in vivo, wild-type C57/BL6J mice
Protocol: FIGS. 11A-11C. Tissue content analysis confirms that acute pharmacological dopamine depletion in wild-type mice leads to striatal dopamine levels similar to those observed in PD patients. […] Average quantities in depleted animals were reduced for dopamine, DOPAC and HVA to: 4.5 ng, 0.17 ng and 0.41 ng per mg tissue, respectively, compared to 14.4 ng, 0.74 ng and 1.36 ng per mg tissue, for saline injected control animals (**=p<0.005, Mann-Whitney test, n=6 in each group). Tissue content analysis of dopamine and metabolites.
Striatal tissue content of dopamine was assessed using high performance liquid chromatography with electrochemical detection, as previously described. Striata were rapidly dissected, frozen, and stored at −80° C. Later, tissue samples were homogenized in 0.1M HClO4 containing 100 ng/ml 3,4-dihydroxybenzylamine (DHBA) as an internal standard. Homogenates were centrifuged for 10 min at 10,000×g. Supernatants were filtered through 0.22 μm filter and analyzed for levels of dopamine using HPLC-EC. Monoamines and metabolites were separated on a microbore reverse-phase column (C-18, 5 μm, 1×150 mm, Unijet, BAS). The volume of injection was 5 μl.
as §3

[3] = system: striatal dopamine concentrations; conditions: cited from earlier work
wild-type mice [4] = assay: Catalepsy test (forepaws on bar 3 cm above the ground); assay type: in vivo, wild-type C57/BL6J mice; conditions: after the 6 h depletion period
Protocol: The first set of experiments was carried out using an inducible mouse model of PD, first in wild-type animals and then in dopamine-transporter knock-out (DAT-KO) mice (Sotnikova et al, PLoS Biol. 3:e271 (2005)). Through pharmacological inhibition of dopamine synthesis, acute dopamine depletion was induced in both types of animals in order to reliably document the effects of DCS during a severe parkinsonian-like state of akinesia. In agreement with previous experiments, the characteristic behavioral and electrophysiological changes following inhibition of dopamine synthesis was confirmed in these animals (Carlsson, Acta Neurol. Scand. Suppl 51:11 (1972), Costa et al, Neuron. 52:359 (2006), Sotnikova et al, PLoS Biol. 3:e271 (2005)). In patients, the cardinal symptoms of idiopathic PD, rigidity, resting tremor and brady-/hypokinesia, have been reported to be clinically apparent following degeneration of 60-70% of the dopaminergic neurons of the substantia nigra pars compacta, which in turn results in a […] reduction of striatal dopamine levels (Brooks et al, Biol. Psychiatry 59:908 (2006), Lloyd et al, J. Pharmacol. Exp. Ther. 195:453 (1975)). […]

DAT-KO mice [5] = assay: Minimum L-DOPA dose (alone or with DCS) required to restore locomotion; assay type: in vivo; conditions: AMPT-treated DAT-KO mice
Protocol: as §1, §2
In order to find the minimum dose of L-DOPA (alone or combined with DCS) required to restore locomotion, a severely dopamine-depleted akinetic animal model was used, namely mice lacking the gene for the presynaptic dopamine membrane transporter (DAT-KO). […]

DAT-KO mice [6] = assay: LFP spectral index in severely dopamine depleted animals; assay type: in vivo; conditions: last hours of testing period, coinciding with onset of locomotion
Protocol: FIG. 20. Local field potentials are shifted to higher frequencies as a result of DCS even in severely dopamine depleted animals. Average spectral indices (power ratio: [25-55]/[1.5-25] Hz) calculated for DCS+L-DOPA (black) and L-DOPA (grey) treated animals, respectively. DCS induced spectral changes even at the lowest L-DOPA dose tested (a single 1 mg/kg injection) while the spectral change in the L-DOPA only group occurred during the last hours of the testing period (after more than 20 mg/kg L-DOPA in total) coinciding with onset of locomotion.
Struck by the dramatic functional recovery on the behavioral level, the electrophysiological changes associated with motor improvements were analyzed next. […] The spectral shift was maintained throughout the stimulation period and lasted for ˜50 s following the off-set of stimulation. This indicates a prolonged shift in the activity state of these brain structures, also ruling out any major effects of contamination in the spectrograms from stimulation currents (FIG. 16C). To condense the spectral shift into a single measure, a spectral index was computed by dividing the spectral range analyzed into an upper and lower half and calculating the ratio of the summed power of the frequencies in the two intervals [(25-55 Hz)/(1.5-25 Hz)]. […]

tyrosine hydroxylase = assay: Tyrosine hydroxylase staining and quantification in striatum of 6-OHDA lesioned rats; assay type: in vivo, Long-Evans rats; conditions: 6-OHDA three sites each side, 7 μg per site
Protocol: Rats received a total of […] 6-OHDA, injected in 3 locations of the striatum on each side. The injections contained a saline solution with 3.5 mg/ml 6-OHDA and 0.05% ascorbate. Anteroposterior, mediolateral and dorsoventral coordinates for the injections were: +1.0, +/−3.0, −5.0; −0.1, +/−3.7, −5.0 and −1.2, +/−4.5 and −5.0 (Winkler et al, Neurobiol. Dis. 10:165 (2002)).
The extent and position of striatal lesions was confirmed by TH immunohistochemistry. For quantification of TH-staining, digital photos of the individual sections were taken with a 16× microscope (Stemi 2000-c, Zeiss) under identical illumination conditions. The range in brightness was practically identical for every photo ranging from no light (inside the microscope) at the outer edge to the brightest non-stained part of each section. Images were converted to grey-scale bitmap format with an 8-bit dynamic range in brightness.

[7] = two i.p. injections of 250 mg/kg, 2 hours apart, measured 4 hours after last injection, n=6

Q: What does the source list for `CC(N)(Cc1ccc(O)cc1)C(=O)O` (stereo not drawn) [AMPT, α-methyl-p-tyrosine]?
A: frequency of strong LFP synchronization after dopamine depletion (corticostriatal circuit): 4 Hz; dopamine spectral index (LFP power 2-4 Hz / 0-4 Hz) (corticostriatal circuit; basal value around 0.5): ~1; average amount of locomotion as percentage of control values (wild-type mice [1]; depleted animals during testing periods): ~10%; average locomotion score in open-field (mean±SEM) (wild-type mice [1]; depleted animals, n=14): 0.4±0.02 mm/s; locomotion score, fast movements, as percentage of non-depleted animals (wild-type mice [1]; fast speed interval): 0.3%; locomotion score, medium movements, as percentage of non-depleted animals (wild-type mice [1]; medium speed interval): 2.0%; locomotion score, slow movements, as percentage of non-depleted animals (wild-type mice [1]; slow speed interval): 10.5%; reduction of striatal dopamine levels ([2]; two i.p. injections (250 mg/kg) during a 6 h period): 69%; striatal DOPAC tissue content in depleted animals [2, 7]: 0.17 ng per mg tissue; striatal HVA tissue content in depleted animals [2, 7]: 0.41 ng per mg tissue; striatal dopamine tissue content in depleted animals ([2]; two i.p. injections of 250 mg/kg, 2 hours apart, measured 4 hours after last injection, n=6, 250 mg/kg): 4.5±2.0 ng per mg tissue and 4.5 ng per mg tissue; dopamine levels after AMPT in DAT-KO mice ([3]; 250 mg/kg i.p.): virtually undetectable levels; duration of severe akinesia, rigidity and tremors ([3]; DAT-KO mice treated with AMPT): up to 16 hours; striatal dopamine concentration relative to control animals ([3]; DAT-KO mice treated with AMPT): 0.2%; catalepsy: time unable to remove the forepaws from bar (wild-type mice [4]): at least 30 s

Q: With `N[C@@H](Cc1ccc(O)c(O)c1)C(=O)O` [L-DOPA] as the molecule, how does the “L-DOPA injection dose at which locomotion first occurred” value (DAT-KO mice [5]; L-DOPA injections every hour with increasing dose) read?
A: Its value is 5 mg/kg.

Q: What about the “total L-DOPA dose when locomotion first occurred” value (DAT-KO mice [5]; cumulative dose of hourly injections) of the same molecule?
A: Its value is 15 mg.

Q: And the “total L-DOPA dose at which spectral change occurred” value (DAT-KO mice [6])?
A: The value was “more than 20 mg/kg”.

Q: For `NCCc1cc(O)c(O)cc1O` [6-OHDA], which “tyrosine hydroxylase staining relative to sham treated controls” value (tyrosine hydroxylase) is on record?
A: The value was ~20% and 21%.
